The test system of experiment [1] is nicotinic receptors in brain. The class given is binding, mouse.
The subject of experiment [2] is nicotinic receptors of striatum membrane preparations. The class given is binding, mouse.
For experiment [3], the system named is nicotinic acetylcholine receptors (nAChR) of striatal synaptosomes. The class given is biochemical, mouse.
In another experiment the test system is cFos expression. Particulars: mouse, in vivo.
Experiment [4] concerns nAChRs containing the α6 subunit (brain sections). Type of experiment: binding, mouse.

“Also recorded” adds a separate entry of the source.

Turning to `O=c1cccc2n1C[C@@H]1CNC[C@H]2C1` [cytisine], in experiment [1], the “number of sites with high affinity for the ligand” value (shortened to “number of sites with high affinity”) is given as “reduction; also recorded: no other difference could be detected”.
With `Clc1ccc(C2CC3CCC2N3)cn1` (stereo not drawn) [epibatidine], in experiment [2], the “total number of epibatidine sites” value is “could not show a reduction”. In experiment [1], the “number of sites with high affinity” value is recorded as “reduction; also recorded: no other difference could be detected”.
Turning to `CN1CCCC1c1cccnc1` (stereo not drawn) [nicotine], in experiment [3], the “change in the affinity of the dopamine release response to nicotine (dose-response curve)” value was “loss of affinity of an order of magnitude; also recorded: drop of one order of magnitude”, the “dopamine release peak induced by nicotine” value is listed as 50%, the “effect of nicotine on dopamine release” value is given as “completely absent” and the “increase in dopamine release over the basal level” value is given as “about 100%”. Moreover, the “activation of cFos expression in response to nicotine” value with cFos expression is recorded as “absence of activation”. Also, in experiment [1], the “number of sites with high affinity” value is on record as “reduction; also recorded: no other difference could be detected”.
Take α-Conotoxin MII [αCtxMII]: in experiment [2], the “sites sensitive to αCtxMII as share of the total number of epibatidine sites” value came out at 20%; the “sites with high and low affinity for αCtxMII” value is “total disappearance”. Further, in experiment [3], the “DA release peak induced by nicotine above the basal level in presence of αCtxMII” value is 50%. For the same molecule, in experiment [4], the “binding sites on brain sections” value is “presence of binding sites in three major anatomical systems” and the “high affinity binding sites for the toxin” value is listed as “complete disappearance”.
For the molecule α-bungarotoxin, the “ligand bond (distribution of binding sites) in mutants versus Wt” value in experiment [1] was “not modified”.

(Values after US7820876B2 (priority 2000, dated 2010).)
